Experimental data as given in the supplement of paper PMC10733146.

Tests used:
Experiment in all cases: viability relative to DMSO control (fraction); higher = less drug effect (more viable cells)
Details in all cases: 48 h
[1] = system: primary ALL patient cells (S048)
How it was run: (§1)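 Primary mononuclear tumour cells (Ficoll-isolated from blood or bone marrow, or processed lymph node; fresh or cryopreserved) were plated at 4 × 10^4 cells per well in 384-well plates with pre-plated compounds at five concentrations, one well each. Medium was RPMI-1640 with penicillin/streptomycin, L-glutamine and human serum, at 37 °C and 5% CO2 for 48 h. Viability was read as CellTiter-Glo luminescence relative to the median of 16 inner DMSO wells.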

[2] = system: primary AML patient cells (S002)
How it was run: as §1

[3] = system: primary AML patient cells (S011)
How it was run: as §1

[4] = system: primary AML patient cells (S019)
How it was run: as §1

[5] = system: primary AML patient cells (S021)
How it was run: as §1

[6] = system: primary AML patient cells (S025)
How it was run: as §1

[7] = system: primary AML patient cells (S037)
How it was run: as §1

[8] = system: primary AML patient cells (S055)
How it was run: as §1

[9] = system: primary AML patient cells (S081)
How it was run: as §1

[10] = system: primary AML patient cells (S089)
How it was run: as §1

[11] = system: primary AML patient cells (S091)
How it was run: as §1

[12] = system: primary DLBCL patient cells (S049)
How it was run: as §1

[13] = system: primary DLBCL patient cells (S076)
How it was run: as §1

[14] = system: primary FL patient cells (S022)
How it was run: as §1

[15] = system: primary MCL patient cells (S068)
How it was run: as §1

[16] = system: primary T-NHL patient cells (S058)
How it was run: as §1

[17] = system: primary T-PLL patient cells (S008)
How it was run: as §1

CC[C@H](Nc1ncnc2[nH]cnc12)c1nc2cccc(F)c2c(=O)n1-c1ccccc1 [Idelalisib]
viability ([1]; 0.0032 µM): 1.01 | viability ([1]; 0.016 µM): 0.934 | viability ([1]; 0.08 µM): 0.861 | viability ([1]; 0.4 µM): 0.751 | viability ([1]; 2 µM): 0.752 | viability ([2]; 0.0032 µM): 0.969 | viability ([2]; 0.016 µM): 1.02 | viability ([2]; 0.08 µM): 0.957 | viability ([2]; 0.4 µM): 0.924 | viability ([2]; 2 µM): 0.785 | viability ([3]; 0.0032 µM): 0.968 | viability ([3]; 0.016 µM): 0.873 | viability ([3]; 0.08 µM): 0.924 | viability ([3]; 0.4 µM): 0.88 | viability ([3]; 2 µM): 0.829 | viability ([4]; 0.0032 µM): 1.02 | viability ([4]; 0.016 µM): 0.936 | viability ([4]; 0.08 µM): 1.01 | viability ([4]; 0.4 µM): 1.13 | viability ([4]; 2 µM): 0.996 | viability ([5]; 0.0032 µM): 1.03 | viability ([5]; 0.016 µM): 0.928 | viability ([5]; 0.08 µM): 0.843 | viability ([5]; 0.4 µM): 0.827 | viability ([5]; 2 µM): 0.741 | viability ([6]; 0.0032 µM): 0.92 | viability ([6]; 0.016 µM): 0.935 | viability ([6]; 0.08 µM): 0.959 | viability ([6]; 0.4 µM): 1.14 | viability ([6]; 2 µM): 0.924 | viability ([7]; 0.0032 µM): 0.976 | viability ([7]; 0.016 µM): 1.03 | viability ([7]; 0.08 µM): 1.03 | viability ([7]; 0.4 µM): 1.81 | viability ([7]; 2 µM): 0.983 | viability ([8]; 0.0032 µM): 1 | viability ([8]; 0.016 µM): 0.961 | viability ([8]; 0.08 µM): 0.909 | viability ([8]; 0.4 µM): 0.972 | viability ([8]; 2 µM): 0.875 | viability ([9]; 0.0032 µM): 1.07 | viability ([9]; 0.016 µM): 1.04 | viability ([9]; 0.08 µM): 1.06 | viability ([9]; 0.4 µM): 1.07 | viability ([9]; 2 µM): 1.03 | viability ([10]; 0.0032 µM): 0.965 | viability ([10]; 0.016 µM): 0.739 | viability ([10]; 0.08 µM): 0.924 | viability ([10]; 0.4 µM): 0.671 | viability ([10]; 2 µM): 0.58 | viability ([11]; 0.0032 µM): 0.929 | viability ([11]; 0.016 µM): 0.838 | viability ([11]; 0.08 µM): 0.773 | viability ([11]; 0.4 µM): 0.697 | viability ([11]; 2 µM): 0.558 | viability ([12]; 0.0032 µM): 1.02 | viability ([12]; 0.016 µM): 1.02 | viability ([12]; 0.08 µM): 0.968 | viability ([12]; 0.4 µM): 1.02 | viability ([12]; 2 µM): 0.94 | viability ([13]; 0.0032 µM): 0.935 | viability ([13]; 0.016 µM): 0.879 | viability ([13]; 0.08 µM): 0.825 | viability ([13]; 0.4 µM): 0.832 | viability ([13]; 2 µM): 0.735 | viability ([14]; 0.0032 µM): 1.05 | viability ([14]; 0.016 µM): 1.09 | viability ([14]; 0.08 µM): 0.955 | viability ([14]; 0.4 µM): 0.939 | viability ([14]; 2 µM): 0.929 | viability ([15]; 0.0032 µM): 0.888 | viability ([15]; 0.016 µM): 0.755 | viability ([15]; 0.08 µM): 0.663 | viability ([15]; 0.4 µM): 0.612 | viability ([15]; 2 µM): 0.558 | viability ([16]; 0.0032 µM): 0.988 | viability ([16]; 0.016 µM): 0.916 | viability ([16]; 0.08 µM): 0.961 | viability ([16]; 0.4 µM): 1.08 | viability ([16]; 2 µM): 0.985 | viability ([17]; 0.0032 µM): 1 | viability ([17]; 0.016 µM): 0.97 | viability ([17]; 0.08 µM): 1.03 | viability ([17]; 0.4 µM): 0.99 | viability ([17]; 2 µM): 0.992
